{"source": "ChEMBL document CHEMBL4507291", "about": "(2021)", "key": {"[1]": {"target": "Membrane-associated tyrosine- and threonine-specific cdc2-inhibitory kinase (Homo sapiens) (UniProt Q99640)", "sequence (Q99640 whole entry)": "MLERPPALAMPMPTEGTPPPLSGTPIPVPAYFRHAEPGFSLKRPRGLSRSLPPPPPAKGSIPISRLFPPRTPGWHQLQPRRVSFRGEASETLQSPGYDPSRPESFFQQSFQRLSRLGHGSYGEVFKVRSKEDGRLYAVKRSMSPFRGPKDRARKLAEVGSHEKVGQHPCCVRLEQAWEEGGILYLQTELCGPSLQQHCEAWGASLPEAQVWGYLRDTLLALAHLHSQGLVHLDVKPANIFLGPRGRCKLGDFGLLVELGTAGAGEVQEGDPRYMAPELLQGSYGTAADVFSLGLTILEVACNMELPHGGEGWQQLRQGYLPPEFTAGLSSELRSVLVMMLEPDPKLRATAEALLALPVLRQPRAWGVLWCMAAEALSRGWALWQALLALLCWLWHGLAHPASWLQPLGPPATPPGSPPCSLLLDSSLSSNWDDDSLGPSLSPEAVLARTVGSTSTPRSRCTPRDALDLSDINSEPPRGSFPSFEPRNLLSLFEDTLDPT"}, "[2]": {"target": "Sigma non-opioid intracellular receptor 1 (Homo sapiens, UniProt Q99720)", "sequence (Q99720 whole entry)": "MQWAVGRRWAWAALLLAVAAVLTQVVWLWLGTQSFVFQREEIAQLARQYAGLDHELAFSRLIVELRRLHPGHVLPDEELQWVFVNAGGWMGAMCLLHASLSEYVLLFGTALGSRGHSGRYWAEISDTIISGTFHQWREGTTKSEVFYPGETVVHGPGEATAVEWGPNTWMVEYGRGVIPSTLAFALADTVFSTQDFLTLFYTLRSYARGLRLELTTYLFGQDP", "conditions": "Compound concentration 10.0 uM"}, "[3]": {"tested_on": "Tyrosine-protein kinase ABL1 (Homo sapiens), P00519 [E255K]", "sequence (P00519 whole entry E255K)": "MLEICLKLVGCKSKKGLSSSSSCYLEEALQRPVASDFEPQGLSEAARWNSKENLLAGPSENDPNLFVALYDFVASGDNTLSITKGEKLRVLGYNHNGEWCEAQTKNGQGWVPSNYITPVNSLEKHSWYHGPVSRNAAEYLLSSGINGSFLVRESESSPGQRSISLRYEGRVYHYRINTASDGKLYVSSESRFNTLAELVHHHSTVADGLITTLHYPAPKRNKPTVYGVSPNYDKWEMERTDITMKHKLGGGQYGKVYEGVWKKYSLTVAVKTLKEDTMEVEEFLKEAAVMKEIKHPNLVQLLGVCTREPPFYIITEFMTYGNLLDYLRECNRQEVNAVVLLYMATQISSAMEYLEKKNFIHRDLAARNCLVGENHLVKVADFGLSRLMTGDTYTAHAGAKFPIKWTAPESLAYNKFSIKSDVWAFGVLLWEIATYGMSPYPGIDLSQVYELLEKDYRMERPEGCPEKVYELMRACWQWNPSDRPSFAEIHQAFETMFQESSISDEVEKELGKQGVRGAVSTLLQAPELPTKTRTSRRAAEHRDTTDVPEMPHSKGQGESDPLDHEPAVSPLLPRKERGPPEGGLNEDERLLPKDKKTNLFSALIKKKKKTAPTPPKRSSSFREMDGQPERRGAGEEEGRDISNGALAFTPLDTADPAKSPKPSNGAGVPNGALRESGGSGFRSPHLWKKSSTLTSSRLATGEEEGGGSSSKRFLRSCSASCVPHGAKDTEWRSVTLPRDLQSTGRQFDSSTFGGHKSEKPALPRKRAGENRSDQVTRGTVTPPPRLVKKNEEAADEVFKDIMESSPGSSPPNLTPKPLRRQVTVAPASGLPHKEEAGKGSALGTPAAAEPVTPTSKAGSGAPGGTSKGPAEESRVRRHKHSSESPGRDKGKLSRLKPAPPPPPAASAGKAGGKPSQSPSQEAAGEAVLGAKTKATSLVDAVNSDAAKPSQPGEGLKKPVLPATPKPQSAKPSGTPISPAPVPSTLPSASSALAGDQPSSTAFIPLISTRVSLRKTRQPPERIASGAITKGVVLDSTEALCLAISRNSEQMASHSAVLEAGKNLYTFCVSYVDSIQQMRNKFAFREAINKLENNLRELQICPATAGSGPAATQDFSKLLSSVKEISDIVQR"}, "[4]": {"target": "Non-receptor tyrosine-protein kinase TYK2 (Homo sapiens) (UniProt P29597)", "sequence (P29597 whole entry)": "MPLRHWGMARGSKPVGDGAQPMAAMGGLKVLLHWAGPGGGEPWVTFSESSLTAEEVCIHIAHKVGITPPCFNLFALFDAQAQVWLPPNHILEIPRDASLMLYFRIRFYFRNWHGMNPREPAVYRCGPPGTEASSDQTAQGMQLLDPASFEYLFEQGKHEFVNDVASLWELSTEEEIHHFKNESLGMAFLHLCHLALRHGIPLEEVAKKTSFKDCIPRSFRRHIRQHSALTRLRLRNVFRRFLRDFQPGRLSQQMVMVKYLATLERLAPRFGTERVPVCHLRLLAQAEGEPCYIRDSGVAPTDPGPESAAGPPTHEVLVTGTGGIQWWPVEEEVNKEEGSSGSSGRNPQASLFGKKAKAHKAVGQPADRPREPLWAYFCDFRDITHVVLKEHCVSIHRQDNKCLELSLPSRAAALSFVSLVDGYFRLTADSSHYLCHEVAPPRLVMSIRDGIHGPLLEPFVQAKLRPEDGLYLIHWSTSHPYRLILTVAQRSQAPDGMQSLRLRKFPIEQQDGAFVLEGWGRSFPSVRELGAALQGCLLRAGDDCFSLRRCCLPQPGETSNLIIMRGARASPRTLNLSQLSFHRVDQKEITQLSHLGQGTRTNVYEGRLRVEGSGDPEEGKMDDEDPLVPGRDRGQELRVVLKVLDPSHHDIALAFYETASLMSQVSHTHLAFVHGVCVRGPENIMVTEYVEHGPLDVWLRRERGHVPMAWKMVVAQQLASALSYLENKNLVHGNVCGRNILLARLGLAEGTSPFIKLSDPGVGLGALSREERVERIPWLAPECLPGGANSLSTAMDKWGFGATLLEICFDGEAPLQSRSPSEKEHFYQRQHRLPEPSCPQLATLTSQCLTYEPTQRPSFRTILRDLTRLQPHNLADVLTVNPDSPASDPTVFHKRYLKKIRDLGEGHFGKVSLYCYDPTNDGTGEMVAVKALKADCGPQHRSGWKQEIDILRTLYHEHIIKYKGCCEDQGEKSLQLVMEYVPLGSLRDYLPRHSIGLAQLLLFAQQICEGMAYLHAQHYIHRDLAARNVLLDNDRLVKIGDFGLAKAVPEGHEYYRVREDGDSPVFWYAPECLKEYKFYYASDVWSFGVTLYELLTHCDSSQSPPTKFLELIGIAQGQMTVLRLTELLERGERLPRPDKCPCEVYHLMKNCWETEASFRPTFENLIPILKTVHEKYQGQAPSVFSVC"}, "[5]": {"target": "Ribosomal protein S6 kinase alpha-1 (Homo sapiens) (UniProt Q15418)"}, "[6]": {"target": "Serine/threonine-protein kinase PRP4 homolog (Homo sapiens) (UniProt Q13523)"}, "[7]": {"target": "1-phosphatidylinositol 3-phosphate 5-kinase (Homo sapiens) (UniProt Q9Y2I7)"}, "[8]": {"tested_on": "Receptor-type tyrosine-protein kinase FLT3 (Homo sapiens), P36888 [UNDEFINED MUTATION]", "sequence (P36888 whole entry, looked up, change not shown)": "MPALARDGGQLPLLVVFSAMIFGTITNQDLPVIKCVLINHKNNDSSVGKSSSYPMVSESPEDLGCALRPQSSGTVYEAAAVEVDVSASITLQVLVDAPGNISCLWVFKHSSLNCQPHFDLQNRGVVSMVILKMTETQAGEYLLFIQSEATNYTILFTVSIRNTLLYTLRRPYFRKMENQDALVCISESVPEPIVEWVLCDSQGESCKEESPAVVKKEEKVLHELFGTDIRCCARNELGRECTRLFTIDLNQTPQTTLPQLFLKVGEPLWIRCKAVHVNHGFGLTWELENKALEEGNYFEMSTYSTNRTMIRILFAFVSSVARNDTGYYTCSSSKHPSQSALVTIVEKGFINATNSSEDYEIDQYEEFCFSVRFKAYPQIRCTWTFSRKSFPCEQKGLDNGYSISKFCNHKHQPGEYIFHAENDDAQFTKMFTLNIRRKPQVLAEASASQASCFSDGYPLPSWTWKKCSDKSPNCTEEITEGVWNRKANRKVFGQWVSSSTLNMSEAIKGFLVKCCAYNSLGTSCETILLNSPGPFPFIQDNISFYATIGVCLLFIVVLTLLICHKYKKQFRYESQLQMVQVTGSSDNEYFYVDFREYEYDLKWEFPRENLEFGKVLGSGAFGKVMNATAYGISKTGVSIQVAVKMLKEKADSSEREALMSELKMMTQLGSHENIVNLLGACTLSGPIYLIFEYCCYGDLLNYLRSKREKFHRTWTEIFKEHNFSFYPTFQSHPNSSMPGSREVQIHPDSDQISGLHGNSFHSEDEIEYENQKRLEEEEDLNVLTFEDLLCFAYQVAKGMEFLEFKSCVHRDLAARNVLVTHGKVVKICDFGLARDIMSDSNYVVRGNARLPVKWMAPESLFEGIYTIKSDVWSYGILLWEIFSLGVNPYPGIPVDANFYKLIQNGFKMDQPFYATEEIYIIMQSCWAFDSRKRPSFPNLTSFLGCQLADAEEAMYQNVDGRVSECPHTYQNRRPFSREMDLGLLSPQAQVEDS"}, "[9]": {"target": "T1, Serine/threonine-protein kinase 3 (Homo sapiens) (UniProt Q13188)", "T1 sequence (whole entry)": "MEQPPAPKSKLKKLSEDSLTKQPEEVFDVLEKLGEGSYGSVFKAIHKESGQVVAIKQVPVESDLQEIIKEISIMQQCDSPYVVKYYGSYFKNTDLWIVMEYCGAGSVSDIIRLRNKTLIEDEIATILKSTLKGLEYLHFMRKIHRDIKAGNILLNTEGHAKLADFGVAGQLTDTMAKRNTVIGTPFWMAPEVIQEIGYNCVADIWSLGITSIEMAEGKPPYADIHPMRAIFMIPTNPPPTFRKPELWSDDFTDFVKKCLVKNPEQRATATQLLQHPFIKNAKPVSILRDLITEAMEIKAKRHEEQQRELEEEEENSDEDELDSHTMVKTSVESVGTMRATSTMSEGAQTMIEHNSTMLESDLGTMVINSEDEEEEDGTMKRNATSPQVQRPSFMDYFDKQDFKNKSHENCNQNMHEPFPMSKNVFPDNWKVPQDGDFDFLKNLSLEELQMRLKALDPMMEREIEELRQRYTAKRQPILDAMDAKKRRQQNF"}, "[10]": {"target": "T2, Inhibitor of nuclear factor kappa-B kinase subunit epsilon (Homo sapiens) (UniProt Q14164)", "T2 sequence (whole entry)": "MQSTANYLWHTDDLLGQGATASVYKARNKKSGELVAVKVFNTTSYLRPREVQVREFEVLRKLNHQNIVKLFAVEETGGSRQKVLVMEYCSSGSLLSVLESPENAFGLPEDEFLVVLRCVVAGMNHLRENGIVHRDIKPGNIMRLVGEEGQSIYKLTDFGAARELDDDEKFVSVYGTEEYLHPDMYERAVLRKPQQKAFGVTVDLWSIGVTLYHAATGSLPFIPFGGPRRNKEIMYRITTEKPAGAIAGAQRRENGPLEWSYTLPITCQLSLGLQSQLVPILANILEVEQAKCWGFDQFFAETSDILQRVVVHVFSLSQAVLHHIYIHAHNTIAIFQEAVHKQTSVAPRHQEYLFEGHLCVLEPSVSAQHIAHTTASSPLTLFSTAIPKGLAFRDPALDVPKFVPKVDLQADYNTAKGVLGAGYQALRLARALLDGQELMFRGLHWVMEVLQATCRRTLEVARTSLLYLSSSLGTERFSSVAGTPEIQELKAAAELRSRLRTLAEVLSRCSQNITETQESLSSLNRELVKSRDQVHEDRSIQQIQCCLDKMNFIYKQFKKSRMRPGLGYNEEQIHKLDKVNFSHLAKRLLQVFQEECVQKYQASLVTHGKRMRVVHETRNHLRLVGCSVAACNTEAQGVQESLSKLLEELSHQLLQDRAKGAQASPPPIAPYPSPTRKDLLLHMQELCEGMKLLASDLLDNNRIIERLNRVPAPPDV"}, "[11]": {"target": "T3, cGMP-dependent protein kinase 2 (Homo sapiens) (UniProt Q13237)", "T3 sequence (whole entry)": "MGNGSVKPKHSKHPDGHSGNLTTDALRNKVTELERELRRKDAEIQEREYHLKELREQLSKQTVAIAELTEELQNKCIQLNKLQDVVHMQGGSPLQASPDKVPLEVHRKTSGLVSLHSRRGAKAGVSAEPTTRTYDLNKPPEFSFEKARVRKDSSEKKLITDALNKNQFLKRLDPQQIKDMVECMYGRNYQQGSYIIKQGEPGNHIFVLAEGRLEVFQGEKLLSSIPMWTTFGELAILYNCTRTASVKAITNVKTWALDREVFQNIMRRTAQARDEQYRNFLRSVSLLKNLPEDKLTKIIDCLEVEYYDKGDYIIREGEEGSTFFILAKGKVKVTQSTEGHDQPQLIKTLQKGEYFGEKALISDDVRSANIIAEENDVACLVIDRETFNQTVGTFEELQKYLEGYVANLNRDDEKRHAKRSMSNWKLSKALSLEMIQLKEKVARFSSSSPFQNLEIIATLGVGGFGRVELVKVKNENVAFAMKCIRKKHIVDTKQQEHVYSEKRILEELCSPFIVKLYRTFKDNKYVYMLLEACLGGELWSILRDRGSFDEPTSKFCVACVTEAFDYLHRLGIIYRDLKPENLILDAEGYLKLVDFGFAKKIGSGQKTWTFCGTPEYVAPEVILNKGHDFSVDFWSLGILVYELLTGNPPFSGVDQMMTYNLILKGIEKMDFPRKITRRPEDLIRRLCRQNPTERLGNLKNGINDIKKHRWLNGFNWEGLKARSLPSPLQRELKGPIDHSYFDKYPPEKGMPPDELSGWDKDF"}, "[12]": {"target": "T4, Dual specificity mitogen-activated protein kinase kinase 6 (Homo sapiens) (UniProt P52564)", "T4 sequence (whole entry)": "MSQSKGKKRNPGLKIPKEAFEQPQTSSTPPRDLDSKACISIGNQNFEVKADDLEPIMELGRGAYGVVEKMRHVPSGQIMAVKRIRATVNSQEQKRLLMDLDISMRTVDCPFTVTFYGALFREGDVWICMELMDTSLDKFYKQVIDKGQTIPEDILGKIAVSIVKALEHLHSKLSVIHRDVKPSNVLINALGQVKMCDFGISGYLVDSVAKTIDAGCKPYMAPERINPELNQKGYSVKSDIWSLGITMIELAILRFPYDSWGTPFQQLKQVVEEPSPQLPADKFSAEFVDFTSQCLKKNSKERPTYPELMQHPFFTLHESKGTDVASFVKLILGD"}, "[13]": {"tested_on": "Mast/stem cell growth factor receptor Kit (Homo sapiens), P10721 [V559D,T670I]", "sequence (P10721 whole entry V559D/T670I)": "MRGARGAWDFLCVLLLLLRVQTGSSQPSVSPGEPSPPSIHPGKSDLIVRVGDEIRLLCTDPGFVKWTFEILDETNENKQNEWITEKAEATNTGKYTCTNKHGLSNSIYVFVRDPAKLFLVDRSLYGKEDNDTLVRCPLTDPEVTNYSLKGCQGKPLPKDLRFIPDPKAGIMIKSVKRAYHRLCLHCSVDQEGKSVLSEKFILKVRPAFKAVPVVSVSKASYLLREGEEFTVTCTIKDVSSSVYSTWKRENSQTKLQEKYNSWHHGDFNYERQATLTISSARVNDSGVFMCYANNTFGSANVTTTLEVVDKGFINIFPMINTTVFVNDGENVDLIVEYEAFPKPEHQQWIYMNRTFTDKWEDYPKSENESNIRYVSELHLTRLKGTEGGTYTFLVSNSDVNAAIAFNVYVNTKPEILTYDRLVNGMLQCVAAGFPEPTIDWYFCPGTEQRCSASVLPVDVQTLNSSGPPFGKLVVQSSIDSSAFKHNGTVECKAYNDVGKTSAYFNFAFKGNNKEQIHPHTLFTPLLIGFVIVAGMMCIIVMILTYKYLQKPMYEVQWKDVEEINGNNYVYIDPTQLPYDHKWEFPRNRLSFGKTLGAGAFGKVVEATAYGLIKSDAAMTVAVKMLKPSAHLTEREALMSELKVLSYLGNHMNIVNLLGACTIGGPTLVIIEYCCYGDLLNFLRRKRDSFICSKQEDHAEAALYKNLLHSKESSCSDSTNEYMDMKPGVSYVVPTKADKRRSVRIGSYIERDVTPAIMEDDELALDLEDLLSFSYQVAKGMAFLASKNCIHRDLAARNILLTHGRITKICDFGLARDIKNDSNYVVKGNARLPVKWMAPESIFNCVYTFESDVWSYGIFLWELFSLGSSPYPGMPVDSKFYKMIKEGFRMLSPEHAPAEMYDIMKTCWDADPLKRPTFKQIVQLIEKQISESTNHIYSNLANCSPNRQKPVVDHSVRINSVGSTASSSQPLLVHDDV"}, "[14]": {"conditions": "Compound concentration 100.0 nM"}, "[15]": {"conditions": "Compound concentration 1000.0 nM"}}, "data": [{"smiles": "C[C@@H]1CN(c2cc(-c3n[nH]c4ccc(OC5(C)CC5)cc34)ncn2)C[C@H](C)O1", "note": "[MLi-2]", "values": [{"measurement": "residual activity", "setting": "[1]; [14]", "result": 96, "unit": "%"}, {"measurement": "inhibition", "setting": "[2]", "result": 35.9, "unit": "%"}, {"measurement": "residual activity", "setting": "[3]; [14]", "result": 66, "unit": "%"}, {"measurement": "residual activity", "setting": "[4]; [14]", "result": 81, "unit": "%"}, {"measurement": "residual activity", "setting": "[5]; [14]", "result": 93, "unit": "%"}, {"measurement": "residual activity", "setting": "[6]; [14]", "result": 83, "unit": "%"}, {"measurement": "residual activity", "setting": "[7]; [14]", "result": 90, "unit": "%"}, {"measurement": "residual activity", "setting": "[8]; [14]", "result": 100, "unit": "%"}, {"measurement": "residual activity", "setting": "[9]; [14]", "result": 78, "unit": "%"}, {"measurement": "residual activity", "setting": "[10]; [14]", "result": 74, "unit": "%"}, {"measurement": "residual activity", "setting": "[11]; [14]", "result": 79, "unit": "%"}, {"measurement": "residual activity", "setting": "[12]; [14]", "result": 100, "unit": "%"}, {"measurement": "residual activity", "setting": "[13]; [14]", "result": 95, "unit": "%"}]}, {"smiles": "C[C@@H]1CN(c2cc(-c3nn(C)c4ccc(OC5(C)CC5)cc34)ncn2)C[C@H](C)O1", "note": "[MLi-2-NC]", "values": [{"measurement": "residual activity", "setting": "[1]; [15]", "result": 100, "unit": "%"}, {"measurement": "inhibition", "setting": "[2]", "result": 58.2, "unit": "%"}, {"measurement": "residual activity", "setting": "[3]; [15]", "result": 79, "unit": "%"}, {"measurement": "residual activity", "setting": "[4]; [15]", "result": 51, "unit": "%"}, {"measurement": "residual activity", "setting": "[5]; [15]", "result": 100, "unit": "%"}, {"measurement": "residual activity", "setting": "[6]; [15]", "result": 100, "unit": "%"}, {"measurement": "residual activity", "setting": "[7]; [15]", "result": 78, "unit": "%"}, {"measurement": "residual activity", "setting": "[8]; [15]", "result": 91, "unit": "%"}, {"measurement": "residual activity", "setting": "[9]; [15]", "result": 100, "unit": "%"}, {"measurement": "residual activity", "setting": "[10]; [15]", "result": 65, "unit": "%"}, {"measurement": "residual activity", "setting": "[11]; [15]", "result": 85, "unit": "%"}, {"measurement": "residual activity", "setting": "[12]; [15]", "result": 89, "unit": "%"}, {"measurement": "residual activity", "setting": "[13]; [15]", "result": 100, "unit": "%"}]}]}
